Laboratory results: patent publication US12274898B2, “Substituted benzodiazepines as antibody-drug conjugates” (priority 2018, dated 2025)
Non-standard residues stand in square brackets, D forms with d. Residues, ends and D or L forms follow the SMILES beside them. Dolaproine = CO[C@@H]([C@@H]1CCCN1)[C@@H](C)C(=O)O; Dil = CC[C@H](C)[C@H](NC)[C@@H](CC(=O)O)OC; NMeV = CN[C@H](C(=O)O)C(C)C

Assays:
[1] = system: NCI-N87 cancer cells; assay: In vitro analysis of benzodiazepine dimer derivatives, cell viability by MTT assay; format: cell-based; conditions: 6 days incubation, sigmoidal dose-response fit
Method: NCI-N87 cancer cells were seeded into 24-well plates at 25×10^3 cells/1 mL medium/well. The plates were incubated for 24 hours at 37° C. in a humidified 5% CO2-in-air atmosphere. Benzodiazepine dimer derivatives were dissolved initially in DMSO at a concentration of 10 mM. Serial dilutions were made in DMSO. The series of compound dilutions in DMSO were added to triplicate wells of 24-well plates at 5 μL per well. Three wells on each individual plate received 5 μL of DMSO without compound as controls. The final concentration of DMSO per well was 0.5%. The plates were incubated for 6 days at 37° C. in a humidified 5% CO2-in-air atmosphere. Cell viability was determined by the MTT assay and IC50 was generated using a sigmoidal dose-response nonlinear regression curve fit (GraphPad Software Inc.). Results thereof are shown in FIG. 1, FIG. 2, FIG. 3, and Table 2.

[2] = system: NCI-N87 cancer cells; assay: In vitro analysis of protein-drug conjugates (cell cytotoxicity of antibody-drug conjugate), MTT assay; format: cell-based; conditions: ADCs, 6 days incubation
Method: NCI-N87cancer cells were seeded in 96-well plates at a density 5000 cells per well in 100 μL of medium, and cultured for 24 hours. The four compounds ADCs in Example 77 were treated by serial dilutions of 1:4 from 50 nM to 0.0003 nM, and the antibody drug conjugate T-DM1 was treated by serial dilutions of 1:4 from 50 nM to 0.0007 nM. The series of compound dilutions in DMSO were added to triplicate wells of […] at 5 μL per well. Three wells on each individual plate received 5 μL of DMSO without compound as controls. The final concentration of DMSO per well was 0.5%. The plates were incubated for 6 days at 37° C. in a humidified 5% CO2-in-air atmosphere. Cell viability was determined by the MTT assay and IC50 was generated using a sigmoidal dose-response nonlinear regression curve fit (GraphPad software Inc.)
Results of in vitro analysis of compounds T-1-AB, T-2-AB, T-3-AB, and T-4-AB, are shown in FIG. 4, FIG. 5, FIG. 6, FIG. 7, and Table 4.

[3] = Solubility test: relative solubility by retention time on analytical HPLC; format: physicochemical; conditions: HPLC retention times under acidic (0.1% TFA); RP-C18, 5→95% ACN in water over 15 minutes; measure of relative solubility
Method: A solubility study was conducted to check the relative solubility of D-102, D-103, D-104, D-105, D-106, and D-107 on the retention time using analytical HPLC.

Row | Compound | IC50 [1] [nM] | IC50 ([1]; Homo sapiens, 144 h) [nM] | IC50 [2] [nM] | Retention time [3] [min]
1 | CC[C@H](C)[C@@H]([C@@H](CC(=O)N1CCC[C@H]1[C@H](OC)[C@@H](C)C(=O)N[C@@H](Cc1ccccc1)C(=O)OC)OC)N(C)C(=O)[C@@H](NC(=O)[C@@H](NC)C(C)C)C(C)C [MMAF-OMe, reference compound] (H-[NMeV]V[Dil][Dolaproine]F-OMe) | 0.182 | – | – | –
2 | COc1cc2c(cc1OCc1cccc(COc3cc4c(cc3OC)C(=O)N3Cc5ccccc5C[C@H]3C=N4)c1)N=C[C@@H]1Cc3ccccc3CN1C2=O [Ref-2, reference compound] | – | 0.0089 ± 0.002 | – | –
3 | COc1cc2c(cc1OCc1cc(O)cc(COc3cc4c(cc3OC)C(=O)N3Cc5c(n(C)c[n+]5C)C[C@H]3C=N4)c1)N=C[C@@H]1Cc3c([n+](C)cn3C)CN1C2=O [Compound D-110] | – | 588 ± 223 | – | –
4 | COc1ccc(C2=CN3C(=O)c4cc(OC)c(OCc5cc(COc6cc7c(cc6OC)C(=O)N6Cc8ccsc8C[C@H]6C=N7)cc(CN(C)C)c5)cc4N=C[C@@H]3C2)cc1 [Compound D-114] | – | 1.89 | – | –
5 | COc1cc2c(cc1OCc1cc(COc3cc4c(cc3OC)C(=O)N3Cc5sccc5C[C@H]3C=N4)cc(CN(C)C)c1)N=C[C@@H]1Cc3ccsc3CN1C2=O [Compound D-108] | – | 0.008 ± 0.001 | – | –
6 | T-DM1 | – | – | 0.213 ± 0.12 | –
7 | COc1cc2c(cc1OCc1cc(O)cc(COc3cc4c(cc3OC)C(=O)N3Cc5ccccc5C[C@H]3C=N4)c1)N=C[C@@H]1Cc3ccccc3CN1C2=O [Ref-3, reference compound] | – | 0.025 ± 0.018 | – | 10.00
8 | COc1cc2c(cc1OCc1cc(COc3cc4c(cc3OC)C(=O)N3Cc5ccoc5C[C@H]3C=N4)cc(CN(C)C)c1)N=C[C@@H]1Cc3occc3CN1C2=O [Compound D-107] | – | 0.013 ± 0.002 | – | 8.60
9 | COc1cc2c(cc1OCc1cc(O)cc(COc3cc4c(cc3OC)C(=O)N3Cc5ccsc5C[C@H]3C=N4)c1)N=C[C@@H]1Cc3sccc3CN1C2=O [Compound D-103] | – | 0.0472 ± 0.01 | – | 9.75
10 | COc1cc2c(cc1OCc1cc(O)cc(COc3cc4c(cc3OC)C(=O)N3Cc5c(ncn5C)C[C@H]3C=N4)c1)N=C[C@@H]1Cc3ncn(C)c3CN1C2=O [Compound D-101] | – | 17.8 ± 6.6 | – | –
11 | COc1cc2c(cc1OCc1cc(O)cc(COc3cc4c(cc3OC)C(=O)N3Cc5ncn(C)c5C[C@H]3C=N4)c1)N=C[C@@H]1Cc3c(ncn3C)CN1C2=O [Compound D-102] | – | 4.99 ± 0.785 | – | 6.50
12 | COc1cc2c(cc1OCc1cc(COc3cc4c(cc3OC)C(=O)N3Cc5cc(Br)sc5C[C@H]3C=N4)cc(CN(C)C)c1)N=C[C@@H]1Cc3sc(Br)cc3CN1C2=O [Compound D-109] | – | 0.025 ± 0.01 | – | –
13 | COc1cc2c(cc1OCc1cc(COc3cc4c(cc3OC)C(=O)N3Cc5ccsc5C[C@H]3C=N4)cc(CN(C)C)c1)N=C[C@@H]1Cc3sccc3CN1C2=O [Compound D-104] | – | 0.013 ± 0.003 | – | 8.98
14 | COc1cc2c(cc1OCc1cc(COc3cc4c(cc3OC)C(=O)N3Cc5ncn(C)c5C[C@H]3C=N4)cc(CN(C)C)c1)N=C[C@@H]1Cc3c(ncn3C)CN1C2=O [Compound D-106] | – | 28.9 ± 15 | – | 6.02
15 | COc1cc2c(cc1OCc1cc(O)cc(COc3cc4c(cc3OC)C(=O)N3Cc5ncn(C)c5C[C@H]3C=N4)c1)N=C[C@@H]1Cc3ccccc3CN1C2=O [Compound D-105] | – | 0.933 ± 0.344 | – | 8.05
16 | COc1cc2c(cc1OCc1cc(COc3cc4c(cc3OC)C(=O)N3Cc5ccccc5C[C@H]3C=N4)cc(CN(C)C)c1)N=C[C@@H]1Cc3ccccc3CN1C2=O [Ref-1, reference compound] | – | 0.013 ± 0.003 | – | 9.30
